Test [1] relates to Candida albicans IFO 0583. The test can be described thus: Paper disc agar diffusion, growth inhibition zone, Candida albicans IFO 0583. Type of test: cell-based. Conditions: Table 5, Medium A, 28° C., two-day culture, 1000 μ/ml, 8 mm disc; for zone of inhibition at 1000 µg/mL: Candida albicans, IFO0583, 48 h, read-out: Diameter of growth-inhibition zone. Here is the method: Evaluation of the antifungal activities of the compound of formula (I) was conducted by the following method: a sheet of filter paper disc (manufactured by Toyo Seisakusho, 8 mm in diameter) soaked in a […] solution of a compound of formula (I) in methanol was placed on an agar plate containing various fungi, which was incubated at 28° C. for two days, and the diameter of the growth inhibition zone around the filter paper disc was measured. The following culture media were used: A: yeast nitrogen base agar medium (pH 7.0) B: Sabouraud agar medium
cpd. No. (Medium A, 28° C., two-day culture)
Background: A growth-free zone around the sample is the usual read-out of agar diffusion tests.

The subject of test [2] is Candida albicans. Briefly: Protective effect against Candida albicans infection in mice. Type of test: in vivo, Crj:CDF1 mice. Conditions: 168 h, minimum lethal dose of Candida albicans iv, drug once immediately after infection, survival 7 days after infection. The source says: Test Method: Five-week old Crj:CDF1 mice were inoculated with the minimum lethal dose of Candida albicans intravenously. The test drug was given once immediately after infection. The effectiveness of the drug was expressed in ED50 values calculated by the Reed and Muench method from the survival rate 7 days after infection.

With `CCNS(=O)(=O)[C@H](C)[C@](O)(Cn1cncn1)c1ccc(F)cc1F` [Compound 14, N-ethyl-[(2R,3R)-3-(2,4-difluorophenyl)-3-hydroxy-4-(1H-1,2,4-triazol-1-yl)-2-butane]sulfonamide], the zone of inhibition (usually the size of the clear area around the sample on an inoculated plate) at 1000 µg/mL in test [1] came to 38 mm. Besides, in test [2] (po), it took a dose of 5 mg/kg to reach the 50% effect level (ED50).

With `CCCNS(=O)(=O)[C@H](C)[C@](O)(Cn1cncn1)c1ccc(F)cc1F` [Compound 16, N-propyl-[(2R,3R)-3-(2,4-difluorophenyl)-3-hydroxy-4-(1H-1,2,4-triazol-1-yl)-2butane]sulfonamide], in test [1], the zone of inhibition at 1000 µg/mL is 40 mm. The ED50 (commonly the dose that gives a 50% effect, or the effect in half of the subjects) in test [2] (po) came out at 5 mg/kg.

Consider `CCN(C)S(=O)(=O)[C@H](C)[C@](O)(Cn1cncn1)c1ccc(F)cc1F` [Compound 48, N-ethyl-N-methyl[(2R,3R)-3-(2,4-difluorophenyl)-3-hydroxy-4-(1H-1,2,4-triazol-1-yl)-2-butane]sulfonamide], for which the zone of inhibition at 1000 µg/mL in test [1] was 48 mm. Besides, in test [2] (po), the median effective dose (ED50) came out at 11.3 mg/kg.

Consider `C[C@H]([C@](O)(Cn1cncn1)c1ccc(F)cc1F)S(=O)(=O)N(C)Cc1nccs1` [Compound 78], for which, in test [1], the zone of inhibition at 1000 µg/mL worked out at 40 mm. It took a dose of 8 mg/kg to reach the 50% effect level in test [2] (po) (ED50).

Turning to `C[C@H]([C@](O)(Cn1cncn1)c1ccc(F)cc1F)S(=O)(=O)N(C)Cc1cccnc1` [Compound 64, N-(3-pyridylmethyl)-N-methyl-[(2R,3R)-3-(2,4-difluorophenyl)-3-hydroxy-4-(1H-1,2,4-triazol-1-yl)-2-butane]sulfonamide], the zone of inhibition at 1000 µg/mL in test [1] amounted to 40 mm. The compound further had an ED50 in test [2] (po) of 2.8 mg/kg.

As for `C[C@@H](NS(C)(=O)=O)[C@](O)(Cn1cncn1)c1ccc(F)cc1F` [Compound 49, N-[(2R,3R)-3-(2,4-difluorophenyl)-3-hydroxy-4-(1H-1,2,4-triazol-1-yl)-2-butyl]methanesulfonamide], in test [1], the zone of inhibition at 1000 µg/mL is 30 mm. For the same compound, the ED50 in test [2] (po) worked out at 1.8 mg/kg.

Turning to `C[C@H]([C@](O)(Cn1ccnc1)c1ccc(F)cc1F)S(=O)(=O)N(C)Cc1ccc(C(F)(F)F)cc1` [Compound 86, N-methyl-N-(4-trifluoromethylbenzyl)-[(2R,3R)-3-(2,4-difluorophenyl)-3-hydroxy-4-(1-imidazolyl)-2-butane]sulfonamide], the zone of inhibition at 1000 µg/mL in test [1] was 35 mm. Further, the median effective dose (ED50) in test [2] (po) is 8 mg/kg.

`C[C@H]([C@](O)(Cn1cncn1)c1ccc(F)cc1F)S(=O)(=O)NCC(F)(F)F` [Compound 39, N-(2,2,2-trifluoroethyl)-[(2R,3R)-3-(2,4-difluorophenyl)-3-hydroxy-4-(1H-1,2,4-triazol-1-yl)-2-butane]sulfonamide]: in test [1], the zone of inhibition at 1000 µg/mL came out at 40 mm. Besides, in test [2] (po), it took a dose of 8 mg/kg to reach the 50% effect level (ED50).

With `C[C@H]([C@](O)(Cn1cncn1)c1ccc(F)cc1F)S(=O)(=O)NCc1ccccc1` [Compound 58, N-benzyl-[(2R,3R)-3-(2,4-difluorophenyl)-3-hydroxy-4-(1H-1,2,4-triazol-1-yl)-2-butane]sulfonamide], the zone of inhibition at 1000 µg/mL in test [1] was determined as 40 mm. In test [2] (po), this compound had a 50% effective dose (ED50) of 8 mg/kg.

Regarding `C[C@H]([C@](O)(Cn1cncn1)c1ccc(F)cc1F)S(=O)(=O)N1CCN(c2ccc(OCC(F)(F)F)cc2)CC1` [Compound 70, 4-[(2R,3R)-3-(2,4-difluorophenyl)-3-hydroxy-4-(1H-1,2,4-triazol-1-yl)-2-butanesulfonyl]-1-[4-(2,2,2-trifluoroethoxy)phenyl]piperazine], in test [1], the zone of inhibition at 1000 µg/mL came out at 42 mm. This compound also came in with an ED50 in test [2] (po) of 8 mg/kg.

For the compound `CC(=C(Cn1cncn1)c1ccc(F)cc1F)S(=O)(=O)N(C)C` (single isomer, unassigned) [Compound 35, N,N-dimethyl-3-(2,4-difluorophenyl)-4-(1H-1,2,4-triazol-1-yl)-2-butene-2-sulfonamide], the “Diameter of growth-inhibition zone” value in test [1] was 30 mm. For the same compound, the median effective dose (ED50) in test [2] (po) is 20 mg/kg.

Regarding `C[C@H]([C@](O)(Cn1cncn1)c1ccc(F)cc1F)S(=O)(=O)N1CCN(c2ccc(C(F)(F)F)cc2)CC1` [Compound 73, 4-[(2R,3R)-3-(2,4-difluorophenyl)-3-hydroxy-4-(1H-1,2,4-triazol-1-yl)-2-butanesulfonyl]-1-(4-trifluoromethylphenyl)piperazine], the zone of inhibition at 1000 µg/mL in test [1] was found to be 32 mm. In test [2] (po), this compound gave an ED50 of 6.4 mg/kg.

As for `CCCCNS(=O)(=O)[C@H](C)[C@](O)(Cn1cncn1)c1ccc(F)cc1F` [Compound 4, N-butyl-[(2R,3R)-3-(2,4-difluorophenyl)-3-hydroxy-4-(1H-1,2,4-triazol-1-yl)-2-butane]sulfonamide], the zone of inhibition at 1000 µg/mL in test [1] came to 40 mm. The ED50 in test [2] (po) came out at 7.07 mg/kg.

For `C[C@H]([C@](O)(Cn1cncn1)c1ccc(F)cc1F)S(=O)(=O)N1CCOCC1` [Compound 8, 4-[(2R,3R)-3-(2,4-difluorophenyl)-3-hydroxy-4-(1H-1,2,4-triazol-1-yl)-2-butylsulfonyl]morpholine], in test [1], the zone of inhibition at 1000 µg/mL is 40 mm. The ED50 in test [2] (po) worked out at 20 mg/kg; in test [2] (sc), 28.3 mg/kg.

For `C[C@H]([C@](O)(Cn1cncn1)c1ccc(F)cc1F)S(=O)(=O)N(C)CC(F)(F)F` [Compound 46, N-methyl-N-(2,2,2-trifluoroethyl)-[(2R,3R)-3-(2,4-difluorophenyl)-3-hydroxy-4-(1H-1,2,4-triazol-1-yl)-2-butane]sulfonamide], the zone of inhibition at 1000 µg/mL in test [1] turned out to be 45 mm. This compound returned a 50% effective dose (ED50) in test [2] (po) of 8 mg/kg.

As to `C[C@@H](N(C)S(=O)(=O)c1cccs1)[C@](O)(Cn1cncn1)c1ccc(F)cc1F` [Compound 90], in test [1], the zone of inhibition at 1000 µg/mL is 40 mm.

For `C[C@H]([C@](O)(Cn1cncn1)c1ccc(F)cc1F)S(=O)(=O)N1CCN(c2ncccn2)CC1` [Compound 45, 1-[(2R,3R)-3-(2,4-difluorophenyl)-3-hydroxy-4-(1H-1,2,4-triazol-1-yl)-2-butanesulfonyl]-4-(2-pyrimidinyl) piperazine], the zone of inhibition at 1000 µg/mL in test [1] turned out to be 50 mm.

Take `C[C@@H](NS(=O)(=O)CC(F)(F)F)[C@](O)(Cn1cncn1)c1ccc(F)cc1F` [Compound 55]: in test [1], the zone of inhibition at 1000 µg/mL turned out to be 35 mm. Moreover, the 50% effect level in test [2] (po) (ED50) was put at a dose of 2 mg/kg.

On to `C[C@H]([C@](O)(Cn1cncn1)c1ccc(F)cc1F)S(=O)(=O)Nc1ccc(Br)cc1` [Compound 22, N-(4-bromophenyl)-[(2R, 3R)-3-(2,4-difluorophenyl)-3-hydroxy-4-(1H-1,2,4-triazol-1-yl)-2-butane]sulfonamide], for which the zone of inhibition at 1000 µg/mL in test [1] stood at 30 mm.

In the case of `C#CCN(C)S(=O)(=O)[C@H](C)[C@](O)(Cn1cncn1)c1ccc(F)cc1F` [Compound 62, N-methyl-N-(2-propinyl)-[(2R,3R)-3-(2,4-difluorophenyl)-3-hydroxy-4-(1H-1,2,4-triazol-1-yl)-2-butane]sulfonamide], the zone of inhibition at 1000 µg/mL in test [1] stood at 45 mm.

Consider `COc1ccc(N2CCN(S(=O)(=O)[C@H](C)[C@](O)(Cn3cncn3)c3ccc(F)cc3F)CC2)cc1` [Compound 72, 4-[(2R,3R)-3-(2,4-difluorophenyl)-3-hydroxy-4-(1H-1,2,4-triazol-1-yl)-2-butanesulfonyl]-1-(4-methoxyphenyl)piperazine], for which the zone of inhibition at 1000 µg/mL in test [1] was 48 mm.

Consider `C[C@@H](N1CCCS1(=O)=O)[C@](O)(Cn1cncn1)c1ccc(F)cc1F` [Compound 57], for which the zone of inhibition at 1000 µg/mL in test [1] stood at 35 mm.

For the compound `C[C@H]([C@](O)(Cn1cncn1)c1ccc(F)cc1F)S(=O)(=O)N(C)C/C=C/C#CC(C)(C)C` [Compound 68, N-[(E)-6,6-dimethyl-2-hepten-4-ynyl]-N-methyl-[(2R,3R)-3-(2,4-difluorophenyl)-3-hydroxy-4-(1H-1,2,4-triazol-1-yl)-2-butane]sulfonamide], in test [1], the zone of inhibition at 1000 µg/mL was 42 mm.

Consider `C[C@H]([C@](O)(Cn1cncn1)c1ccc(F)cc1F)S(=O)(=O)N(C)CC#CC(C)(C)C` [Compound 63, N-(4,4-dimethyl-2-pentynyl)-N-methyl-[(2R,3R)-3-(2,4-difluorophenyl)-3-hydroxy-4-(1H-1,2,4-triazol-1-yl)-2-butane]sulfonamide], for which, in test [1], the zone of inhibition at 1000 µg/mL is 40 mm.

`C[C@H]([C@](O)(Cn1cncn1)c1ccc(F)cc1F)S(=O)(=O)N(C)Cc1ccccn1` [Compound 79]: the zone of inhibition at 1000 µg/mL in test [1] stood at 30 mm.

On to `CC(=C(Cn1cncn1)c1ccc(F)cc1F)S(=O)(=O)N1CCN(c2ccccc2)CC1` (single isomer, unassigned) [Compound 31, 1-[3-(2,4-difluorophenyl)-4-(1H-1,2,4-triazol-1-yl)-2-buten-2-ylsulfonyl]-4-phenylpiperazine], for which, in test [1], the “Diameter of growth-inhibition zone” value is 35 mm.

As to `C[C@@H](NS(=O)(=O)c1ccc(F)cc1F)[C@](O)(Cn1cncn1)c1ccc(F)cc1F` [Compound 50], in test [1], the zone of inhibition at 1000 µg/mL came to 45 mm.

Consider `Cc1nnc(N(C)S(=O)(=O)[C@H](C)[C@](O)(Cn2cncn2)c2ccc(F)cc2F)s1` [Compound 81], for which the zone of inhibition at 1000 µg/mL in test [1] was found to be 40 mm.

Regarding `C[C@H]([C@](O)(Cn1cncn1)c1ccc(F)cc1F)S(=O)(=O)N1CCCC1` [Compound 28, 1-[(2R,3R)-3-(2,4-difluorophenyl)-3-hydroxy-4-(1H-1,2,4-triazol-1-yl)-2-butylsulfonyl]pyrrolidine], the zone of inhibition at 1000 µg/mL in test [1] stood at 50 mm.

As for `Cc1ncsc1CCN(C)S(=O)(=O)[C@H](C)[C@](O)(Cn1cncn1)c1ccc(F)cc1F` [Compound 80], in test [1], the zone of inhibition at 1000 µg/mL worked out at 40 mm.

Values taken from patent US5389663A, “1-(1h-1,2,4-triazole-yl)-2-propanol compounds” (Takeda Chemical Industries, Ltd., priority 1991, dated 1995).
